Assay results as given in patent publication US20050101595A1, “N-containing cycloalkyl-substituted amino-thiazole derivatives and pharmaceutical compositions for inhibiting cell proliferation and methods for their use” (PFIZER INC., priority 2003, published 2005).
pIC50, pKi: −log10 of the molar value. Where a name gives a salt, the structure may show the parent alone. Read-outs that look alike come from different tables or passages of the source.

Assays:
CDK2/Cyclin A = CDK2/Cyclin A (Homo sapiens, UniProt P24941); test: Inhibition of CDK2/Cyclin A Retinoblastoma Kinase Activity; format: biochemical; details: for pKi: apparent Ki, CDK2/proteolyzed cyclin A, Rb fragment substrate, 25 μM ATP; for CDK2 % Inhibition At 0.03 μM: Table 2
In short: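 Percent inhibition is calculated against DMSO-only wells after subtracting no-enzyme background. The enzyme is human CDK2 complexed with proteolyzed cyclin A, used at 10 nM or 19 nM on an Rb fragment with 25 μM [32/33P]ATP, at pH 7.4 and 30° C.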

[1] = molecular target: human CDK4 and genetically truncated (1-264) cyclin D3 (Homo sapiens, UniProt P11802); test: Inhibition of CDK4/Cyclin D Retinoblastoma Kinase Activity; format: biochemical; details: for pKi: apparent Ki, CDK4/truncated cyclin D3, Rb fragment substrate, 25 μM ATP
In short: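 Apparent Ki values derive from fitting activity at varied inhibitor concentrations to a competitive (or competitive tight-binding) model. Kinase reactions used 5 nM CDK4/cyclin D3(1-264), Rb fragment substrate and 25 μM ATP. Incubation ran 20 min at 30 °C, extended to 60 min under linear conditions for tight binders.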

HCT-116 cell line = test: Inhibition of cell growth, tetrazolium salt (MTT) assay; format: cell-based; details: for HCT-116 % Inhibition at 0.25 μM: 0.25 μM compound; for pIC50: Homo sapiens, HCT-116, 120 h, MTT, three to five days
In short: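 First, cells were seeded in McCoy's 5A medium and held 4 h. Next, inhibitor concentrations in 0.5% (v/v) DMSO were applied for three to five days at 37° C, 5% CO2. Finally, after 4 h with 0.2 mg/mL MTT and medium removal, solubilized formazan was measured at 540 nm.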

[2] = 0.1 μM compound, HCT-116, Table 4
[3] = first HCT-116 column (c4), read-out: HCT-116 IC50
[4] = second HCT-116 column (c5), read-out: HCT-116 IC50

Sequence of human CDK4 and genetically truncated (1-264) cyclin D3 (P11802 whole entry, the tested form may be a part): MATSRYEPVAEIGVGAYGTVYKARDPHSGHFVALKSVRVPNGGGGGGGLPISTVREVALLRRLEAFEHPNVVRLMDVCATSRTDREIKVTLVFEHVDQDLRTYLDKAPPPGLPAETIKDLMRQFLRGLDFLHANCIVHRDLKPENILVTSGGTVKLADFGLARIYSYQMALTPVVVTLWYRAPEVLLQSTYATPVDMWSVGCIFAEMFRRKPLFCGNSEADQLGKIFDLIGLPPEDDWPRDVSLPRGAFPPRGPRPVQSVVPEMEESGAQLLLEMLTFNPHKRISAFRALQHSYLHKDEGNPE
Sequence of human CDK4 and genetically truncated (1-264) cyclin D3 (P30281 1-264 partner): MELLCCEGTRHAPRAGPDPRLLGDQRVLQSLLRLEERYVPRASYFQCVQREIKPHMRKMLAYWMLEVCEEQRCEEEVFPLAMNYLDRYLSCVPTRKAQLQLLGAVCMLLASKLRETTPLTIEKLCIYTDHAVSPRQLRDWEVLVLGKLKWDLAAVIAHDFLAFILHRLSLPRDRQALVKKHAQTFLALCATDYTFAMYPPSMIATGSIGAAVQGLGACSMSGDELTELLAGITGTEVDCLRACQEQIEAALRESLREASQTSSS

SMILES	CDK2 % Inhibition at 0.03 μM (CDK2/Cyclin A; at 0.03 μM)	CDK4 % Inhibition at 0.03 μM ([1]; at 0.03 μM)	HCT-116 % Inhibition at 0.1 μM (HCT-116 cell line; HCT-116 cells, at 0.1 μM)	HCT-116 5 Inhibition at 0.25 μM (HCT-116 cell line; HCT-116 cells)	pKi (CDK2/Cyclin A)	pKi [1]	pIC50 (HCT-116 cell line; [3])	pIC50 (HCT-116 cell line; [4])	other results
Cc1cc(C(=O)N2CCC(Nc3nc(N)c(C(=O)c4c(F)cccc4F)s3)CC2)no1 [Example R64]	9%	10%	0%	42					
CC(C)(C)c1ccc(C(=O)N2CCC(Nc3nc(N)c(C(=O)c4c(F)cccc4F)s3)CC2)cc1 [Example Q34]									CDK2 % Inhibition at 0.03 μM (CDK2/Cyclin A; 0.03 μM compound, Table 4): 28%; CDK4 % Inhibition at 0.03 μM ([1]; 0.03 μM compound, Table 4): 56%; HCT-116 % Inhibition at 0.1 μM (HCT-116 cell line; [2]): 1%; HCT-116 % Inhibition at 0.25 μM (HCT-116 cell line; HCT-116, Table 4): 27%
Nc1nc(NC2CCN(S(=O)(=O)c3ccc(O)nc3)CC2)sc1C(=O)c1c(F)cccc1F [Example H1, 1-{4-Amino-2-[1-(6-hydroxy-pyridine-3-sulfonyl)-piperidin-4-ylamino]-thiazol-5-yl}-1-(2,6-difluoro-phenyl)-methanone Trifluoroacetic Acid Salt]					> 9.00	9.14	5.59	< 5.30	
COc1ccc(CCC(=O)N2CCC(Nc3nc(N)c(C(=O)c4c(F)cccc4F)s3)CC2)cc1 [Example R176]	2%	4%	1%	43					
COC(=O)NC(=O)N1CCC(Nc2nc(N)c(C(=O)c3c(F)cccc3F)s2)CC1 [Example O61]									CDK2 % Inhibition At 0.03 μM (CDK2/Cyclin A; 0.03 μM compound): 33%; CDK4 % Inhibition at 0.03 μM ([1]; 0.03 μM compound, Table 2): 12%; HCT-116 % Inhibition at 0.25 μM (HCT-116 cell line; HCT-116, Table 2): 38%
Nc1nc(NC2CCN(S(=O)(=O)CCNCCN3CCCC3)CC2)sc1C(=O)c1c(F)cccc1F [Example K28, (4-Amino-2-{1-[2-(2-pyrrolidin-1-yl-ethylamino)-ethanesulfonyl]-piperidin-4-ylamino}-thiazol-5-yl)-(2,6-difluoro-phenyl)-methanone Trifluoroacetic Acid Salt.]					8.00	8.55	< 5.30	< 5.30	
CS(=O)(=O)N1CCCC(Nc2nc(N)c(C(=O)c3c(F)cccc3F)s2)C1 (centres unmarked) [Example F37, [4-Amino-2-(1-methanesulfonyl-piperidin-3-ylamino)-thiazol-5-yl]-(2,6-difluoro-phenyl)-methanone]					6.37	5.96	6.15	5.82	
Nc1nc(NC2CCN(S(=O)(=O)c3ccc(-c4cccnc4)cc3)CC2)sc1C(=O)c1c(F)cccc1F [Example I8, 1-{4-Amino-2-[1-(4-pyridin-3-yl-benzenesulfonyl)-piperidin-4-ylamino]-thiazol-5-yl}-1-(2,6-difluoro-phenyl)-methanone Trifluoroacetic Acid Salt]					9.52	9.32	7.15	6.30	
CCOC(=O)CCC(=O)N1CCC(Nc2nc(N)c(C(=O)c3c(F)cccc3F)s2)CC1 [Example Q50]									CDK2 % Inhibition at 0.03 μM (CDK2/Cyclin A; 0.03 μM compound, Table 4): 24%; CDK4 % Inhibition at 0.03 μM ([1]; 0.03 μM compound, Table 4): 42%; HCT-116 % Inhibition at 0.1 μM (HCT-116 cell line; [2]): 7%; HCT-116 % Inhibition at 0.25 μM (HCT-116 cell line; HCT-116, Table 4): 39%
Nc1nc(NC2CCN(C(=O)Oc3ccc([N+](=O)[O-])cc3)CC2)sc1C(=O)c1c(F)cccc1F [Example C16, 4-[4-Amino-5-(2,6-difluoro-benzoyl)-thiazol-2-ylamino]-piperidine-1-carboxylic acid 4-nitro-phenyl ester]					7.74	8.12			pIC50 (HCT-116 cell line; read-out: HCT-116 IC50, first HCT-116 column (c4)): 6.89; pIC50 (HCT-116 cell line; read-out: HCT-116 IC50, second HCT-116 column (c5)): 6.40
CN(C)c1ccc(S(=O)(=O)N2CCC(Nc3nc(N)c(C(=O)c4c(F)cccc4F)s3)CC2)cn1 [Example F19, 1-{4-Amino-2-[1-(6-dimethylamino-pyridine-3-sulfonyl)-piperidin-4-ylamino]-thiazol-5-yl}-1-(2,6-difluoro-phenyl)-methanone]					8.49	8.77	7.32	6.70	
Nc1nc(NC2CCN(S(=O)(=O)c3ccc(N4CCC(O)C4)nc3)CC2)sc1C(=O)c1c(F)cccc1F (centres unmarked) [Example G11, 1-(4-Amino-2-{1-[6-(3-hydroxy-pyrrolidin-1-yl)-pyridin-3-sulfonyl]-piperidin-4-ylamino}-thiazol-5-yl)-1-(2,6-difluoro-phenyl)-methanone Trifluoroacetic Acid Salt]					> 9.00	9.07	6.38	< 5.30	
Nc1nc(NC2CCN(C(=S)Oc3ccccc3)CC2)sc1C(=O)c1c(F)cccc1F [Example C6, 4-[4-Amino-5-(2,6-difluoro-benzoyl)-thiazol-2-ylamino]-piperidine-1-carbothioic Acid O-Phenyl Ester]					8.21	8.10	6.66	6.05	
CC(C)(C)NC(=O)N1CCC(Nc2nc(N)c(C(=O)c3c(F)cccc3F)s2)CC1 [Example O27]									CDK2 % Inhibition At 0.03 μM (CDK2/Cyclin A; 0.03 μM compound): 38%; CDK4 % Inhibition at 0.03 μM ([1]; 0.03 μM compound, Table 2): 9%; HCT-116 % Inhibition at 0.25 μM (HCT-116 cell line; HCT-116, Table 2): 24%
Cc1nnsc1C(=O)N1CCC(Nc2nc(N)c(C(=O)c3c(F)cccc3F)s2)CC1 [Example R70]	21%	12%	0%	44					
CS(=O)(=O)c1csc(C(=O)N2CCC(Nc3nc(N)c(C(=O)c4c(F)cccc4F)s3)CC2)c1Cl [Example R72]	57%	59%	6%	43					
Nc1nc(NC2CCN(C(=O)c3ccccc3-c3ccccc3)CC2)sc1C(=O)c1c(F)cccc1F [Example R123]	5%	39%	0%	38					
CC(=O)OCC(=O)N1CCC(Nc2nc(N)c(C(=O)c3c(F)cccc3F)s2)CC1 [Example Q76]									CDK2 % Inhibition at 0.03 μM (CDK2/Cyclin A; 0.03 μM compound, Table 4): 27%; CDK4 % Inhibition at 0.03 μM ([1]; 0.03 μM compound, Table 4): 31%; HCT-116 % Inhibition at 0.1 μM (HCT-116 cell line; [2]): 4%; HCT-116 % Inhibition at 0.25 μM (HCT-116 cell line; HCT-116, Table 4): 36%
COc1cccc(OC)c1C(=O)N1CCC(Nc2nc(N)c(C(=O)c3c(F)cccc3F)s2)CC1 [Example R118]	36%	33%	7%	47					
COCCOC(=O)N1CCC(Nc2nc(N)c(C(=O)c3c(F)cccc3F)s2)CC1 [Example R82]	−11%	17%	0%	50					
C[C@@H]1CN(c2ccc(S(=O)(=O)N3CCC(Nc4nc(N)c(C(=O)c5c(F)cccc5F)s4)CC3)cc2)C[C@H](C)N1 [Example G29, 1-(4-Amino-2-{1-[4-(3R,5S-dimethyl-piperazin-1-yl)-benzenesulfonyl]-piperidin-4-ylamino}-thiazol-5-yl)-1-(2,6-difluoro-phenyl)-methanone]					9.14	9.21	7.35	6.60	
Nc1nc(NC2CCN(C(=O)Nc3cccc(Br)c3)CC2)sc1C(=O)c1c(F)cccc1F [Example O12]									CDK2 % Inhibition At 0.03 μM (CDK2/Cyclin A; 0.03 μM compound): 31%; CDK4 % Inhibition at 0.03 μM ([1]; 0.03 μM compound, Table 2): 3%; HCT-116 % Inhibition at 0.25 μM (HCT-116 cell line; HCT-116, Table 2): 25%
Cc1cc(C(=O)N2CCC(Nc3nc(N)c(C(=O)c4c(F)cccc4F)s3)CC2)ccc1Cl [Example D7, 1-(4-Amino-2-{1-[1-(4-chloro-3-methyl-phenyl)-methanoyl]-piperidin-4-ylamino}-thiazol-5-yl)-1-(2,6-difluoro-phenyl)-methanone]					7.00	7.49	8.14	6.66	
